Measured values taken from patent publication US11345713B2, “Compounds as modulators of TLR2 signaling” (Neuropore Therapies, inc., priority 2018, dated 2022).

Columns and labels:
[1] = biological target: T1, human TLR2 (Pam2CSK4, TLR2/6 agonist) in HEK-Blue hTLR2 cells (Homo sapiens, UniProt O60603); assay: HEK-Blue hTLR2 antagonism assay (SEAP reporter) with Pam2CSK4 as agonist; format: cell-based; settings: 2 h compound pre-incubation, approx. 3×EC50 Pam2CSK4, 18 h, SEAP OD 655 nm, background subtracted
T1 construct: host or cells: HEK-Blue hTLR2 (HEK-293)
T1 sequence (O60603 19-784 limits assumed): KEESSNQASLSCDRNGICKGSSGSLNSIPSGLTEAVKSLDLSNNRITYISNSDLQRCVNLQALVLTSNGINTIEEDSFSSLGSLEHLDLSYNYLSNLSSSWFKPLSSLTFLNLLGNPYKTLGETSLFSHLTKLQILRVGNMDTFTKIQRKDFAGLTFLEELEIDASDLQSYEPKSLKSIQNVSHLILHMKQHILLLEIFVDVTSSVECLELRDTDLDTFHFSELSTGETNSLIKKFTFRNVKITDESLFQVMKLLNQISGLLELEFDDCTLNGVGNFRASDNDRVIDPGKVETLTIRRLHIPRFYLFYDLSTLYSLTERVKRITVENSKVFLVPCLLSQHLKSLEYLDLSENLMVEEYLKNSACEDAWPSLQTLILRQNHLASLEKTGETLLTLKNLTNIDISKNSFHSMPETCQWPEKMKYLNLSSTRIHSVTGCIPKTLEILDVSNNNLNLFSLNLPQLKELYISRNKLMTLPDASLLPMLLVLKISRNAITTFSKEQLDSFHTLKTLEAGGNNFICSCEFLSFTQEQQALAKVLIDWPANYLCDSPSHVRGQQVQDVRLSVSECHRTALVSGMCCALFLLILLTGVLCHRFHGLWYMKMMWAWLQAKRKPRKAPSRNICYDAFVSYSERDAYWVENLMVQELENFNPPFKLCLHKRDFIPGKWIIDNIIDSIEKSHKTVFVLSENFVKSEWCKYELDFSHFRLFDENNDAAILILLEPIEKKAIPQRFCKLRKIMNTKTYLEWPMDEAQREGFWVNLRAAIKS
Outline: (§1)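 HEK-Blue hTLR2 cells (HEK-293 with human TLR2 and NFκB-driven SEAP), 1×10^5/well, pretreated with compound (1% DMSO final) for 2 h, then stimulated with about 3×EC50 Pam3CSK4 or Pam2CSK4 (EC50 set each run) for 18 h at 37 °C. Supernatant SEAP read by Quanti-Blue at OD 655 nm after 15 min; background-subtracted IC50.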

[2] = biological target: T2, human TLR2 (Pam3CSK4, TLR1/2 agonist) in HEK-Blue hTLR2 cells (Homo sapiens, UniProt O60603); assay: HEK-Blue hTLR2 antagonism assay (SEAP reporter) with Pam3CSK4 as agonist; format: cell-based; settings: 2 h compound pre-incubation, approx. 3×EC50 Pam3CSK4, 18 h, SEAP OD 655 nm, background subtracted
T2 construct: host or cells: HEK-Blue hTLR2 (HEK-293)
T2 sequence (O60603 19-784 limits assumed): as above
Outline: as §1

SMILES | IC50 [1] [µM] | IC50 [2] [µM]
COc1cc(/C=C/c2cccc(C(F)(F)F)c2)cc(C=O)c1O [compound 2, (E)-2-hydroxy-3-methoxy-5-(3-(trifluoromethyl)styryl)benzaldehyde] | 5.3 | 1.4
O=Cc1cc(/C=C/c2ccc(N3CCCCC3)cc2)cc(F)c1O [compound 70, (E)-3-fluoro-2-hydroxy-5-(4-(piperidin-1-yl)styryl)benzaldehyde] | 0.9 | 0.4
